Test results as given in US20240132485A1, “HETEROCYCLIC CULLIN RING UBIQUITIN LIGASE COMPOUNDS AND USES THEREOF” (CEMM - FORSCHUNGSZENTRUM FÜR MOLEKULARE MEDIZIN GMBH, priority 2020, published 2024).

What was measured:
[1] = test system: KBM7 cells harboring a hypomorphic UBE2M mutation; experiment: KBM7 CTG EC50 assay (UBE2M knock-out); format: cell-based; settings: Homo sapiens, KBM-7; 72 h incubation, CellTiter-Glo; read-out: KBM7 CTG EC50 (UBE2M knock-out) Activity Class
Excerpt: (§1) This is a cell viability assay to measure the desired therapeutic effect, i.e. killing of cancer cells. The UBE2M mutant cell line has impaired activity of the Cullin-RING ligase system due to a hypomorphic mutation in UBE2M, which is required for activation of these E3 ligases. By comparison with WT cells, it is possible to estimate the contribution of Cyclin K degradation (which is reduced in UBE2M mut cells) compared to kinase inhibition of CDK12 (which is unaffected in UBE2M mut cells). Since the UBE2M mutation only reduces CRL function without fully abrogating it, this assay may slightly underestimate the effect of degradation because, at high compound concentrations, degradation may still be observed.
(§2) KBM7 cells (wild-type or harboring α hypomorphic UBE2M mutation (Mayor-Ruiz et al., 2019)) were seeded in a white opaque 384-well plate at a density of 1000 cells per well in duplicate, in full medium (IMDM+10% FBS+1% penicillin-streptomycin). Cells were treated with compounds in a 10-point titration with a dilution factor of 1:4 (range: 0 to 20 μM). After 72 h of incubation, the cell viability was determined using the CellTiter-Glo® 2.0 reactant (Promega), pre-diluted 1:4 in mQ water. The luminescence signal was measured using the multimode plate reader EnVision 2105 (Perkin Elmer).

[2] = target: T1, DDB1-CDK12/Cyclin K ternary complex (Homo sapiens, UniProt Q16531+Q9NYV4); experiment: NanoBRET EC50 assay (HaloTag_CDK12 / NanoLuc_DDB1 in HEK293T); format: cell-based; settings: for EC50 / NanoBRET EC50 Activity Class: 10-point titration from 20 μM, HEK293T; for EC50: read-out: NanoBRET EC50 Activity Class
T1 construct: expressed in transfected cells; host or cells: HEK293T wildtype cells, transient PEI transfection
Method: (§3) This assay measures the interaction/recruitment of CDK12/Cyclin K to DDB1, mechanistically validating the molecular glue pharmacology.
(§4) HEK293T wildtype cells are seeded 800 k cells/well (DMEM+10% FBS+1% PS) in a 6-well plate and allowed to attach for ˜7 hours followed by a transient transfection of 1.5 μg HaloTag_CDK12 Plasmid [Table 1] and 0.15 μg NanoLuc_DDB1 plasmid [Table 1] per well using PEI. Cells are incubated at 37° C., 5% CO2, harvested after 24 hours and resuspended in assay media (Opti-MEM Reduced serum media, no phenol red, 4% FBS, 1% PS). Cells are adjusted to 2.3×10^5 cells/ml and treated with HaloTag 618 Ligand at 100 nM or DMSO. 8000 cells are seeded per well in triplicates per compound in a white-walled 384-well plate, one negative control treated with DMSO instead of HaloTag 618 Ligand is seeded in triplicates and the 384-well plate is incubated at 37° C., 5% CO2 overnight. Compound stock solutions are prepared in Opti-MEM−/− (Opti-MEM I Reduced serum media, no phenol red) at 8× and used to treat the cells at a final concentration of 1× at 10 μM. Cells and compounds are incubated for 10 minutes at room temperature followed by addition of NanoBRET Nano-Glo substrate following manufacturer's protocols. The plate is shaken for 30 sec followed by immediate measurement of donor emission (NanoBRET Blue at 460 nm) and acceptor emission (BRET Deep Red at 647 nm) for 0.5 s.
The assay setup is identical to “NanoBRET fold change experimental setup”. Instead of treating cells in […] with 10 μM compound, a 10-point titration starting at 20 μM is performed with a dilution factor of 1:4, covering α range of 20000 nM-0.076 nM.

CCNK = experiment: NanoLuc-CCNK degradation assay (HEK293T_Nluc_CCNK-tagged cells); format: cell-based; settings: for DC50 / NanoLuc-CCNK degradation DC50 Activity Class: 4 h incubation, HEK293T_Nluc_CCNK-tagged cells; for DC50: read-out: NanoLuc-CCNK degradation DC50 Activity Class
Method: The assay helps to elucidate the mechanistic explanation of the cell killing effect of the compounds of the present invention. Cyclin K is fused to a nanoluciferase, light emission is measured as a proxy of Cyclin K abundance. Potency of Cyclin K degradation and cytotoxicity of KBM7 correlate extremely well, further supporting Cyclin K degradation being the main driver of the cell killing, as opposed to inhibition of CDK12 catalytic activity.
HEK293T_Nluc_CCNK-tagged cells were engineered by integrating a nanoluciferase tag at the N-terminus of the endogenous locus of CCNK using CRISPR-Cas9 technology. Briefly, 5.5 million HEK293T cells were co-transfected by PEI with a 1:1 ratio of cutting vector (sgRNA: […]) and repair template (4 μg total plasmid) as previously described (Brand and Winter, 2019). The repair sequence comprises a cassette of puromycinR-P2A-HA-Nluc-(G4S)3 (P2A: self-cleaving peptide 2A, HA: HA-tag, (G4S)3: flexible linker), surrounded by 20-nucleotide microhomologies matching the genomic locus. After 3 days of incubation, the recombinant population was selected by puromycin treatment (2 μg/ml, 5-day treatment). A monoclonal population was obtained by limiting dilution and cassette integration validated by Sanger sequencing.
HEK293T_Nluc_CCNK-tagged cells were seeded in a white opaque 384-well plate at a density of 8000 cells per well in duplicate, in full medium (Opti-MEM I+4% FBS+1% PS). Cells were treated with compounds in a 10-point titration (range: 0 to 10 μM, 1:4 dilution). After 4 h of incubation, Nano-Glo substrate (Promega), pre-diluted in serum-free medium (Opti-MEM I), was added to the cells (1:500 final dilution). The luminescence signal was directly measured using the multimode plate reader EnVision 2105 (Perkin Elmer).

KBM7 cells (wild-type) = experiment: KBM7 CTG EC50 assay (UBE2M wild-type); format: cell-based, human; settings: for EC50: Homo sapiens, KBM-7, 72 h incubation, CellTiter-Glo, read-out: KBM7 CTG EC50 (UBE2M wild-type) Activity Class; for Ratio UBE2M WT to KO: ratio of anti-proliferative activity in KBM7 wild-type versus UBE2M knock-out cells (fold)
Excerpt: as §1, §2

[3] = target: T1, DDB1-CDK12/Cyclin K ternary complex; experiment: NanoBRET fold-change assay (HaloTag_CDK12 / NanoLuc_DDB1 in HEK293T); format: cell-based; settings: 10 μM compound, 10 minutes
Method: as §3, §4

T1 sequence (Q9NYV4 whole entry): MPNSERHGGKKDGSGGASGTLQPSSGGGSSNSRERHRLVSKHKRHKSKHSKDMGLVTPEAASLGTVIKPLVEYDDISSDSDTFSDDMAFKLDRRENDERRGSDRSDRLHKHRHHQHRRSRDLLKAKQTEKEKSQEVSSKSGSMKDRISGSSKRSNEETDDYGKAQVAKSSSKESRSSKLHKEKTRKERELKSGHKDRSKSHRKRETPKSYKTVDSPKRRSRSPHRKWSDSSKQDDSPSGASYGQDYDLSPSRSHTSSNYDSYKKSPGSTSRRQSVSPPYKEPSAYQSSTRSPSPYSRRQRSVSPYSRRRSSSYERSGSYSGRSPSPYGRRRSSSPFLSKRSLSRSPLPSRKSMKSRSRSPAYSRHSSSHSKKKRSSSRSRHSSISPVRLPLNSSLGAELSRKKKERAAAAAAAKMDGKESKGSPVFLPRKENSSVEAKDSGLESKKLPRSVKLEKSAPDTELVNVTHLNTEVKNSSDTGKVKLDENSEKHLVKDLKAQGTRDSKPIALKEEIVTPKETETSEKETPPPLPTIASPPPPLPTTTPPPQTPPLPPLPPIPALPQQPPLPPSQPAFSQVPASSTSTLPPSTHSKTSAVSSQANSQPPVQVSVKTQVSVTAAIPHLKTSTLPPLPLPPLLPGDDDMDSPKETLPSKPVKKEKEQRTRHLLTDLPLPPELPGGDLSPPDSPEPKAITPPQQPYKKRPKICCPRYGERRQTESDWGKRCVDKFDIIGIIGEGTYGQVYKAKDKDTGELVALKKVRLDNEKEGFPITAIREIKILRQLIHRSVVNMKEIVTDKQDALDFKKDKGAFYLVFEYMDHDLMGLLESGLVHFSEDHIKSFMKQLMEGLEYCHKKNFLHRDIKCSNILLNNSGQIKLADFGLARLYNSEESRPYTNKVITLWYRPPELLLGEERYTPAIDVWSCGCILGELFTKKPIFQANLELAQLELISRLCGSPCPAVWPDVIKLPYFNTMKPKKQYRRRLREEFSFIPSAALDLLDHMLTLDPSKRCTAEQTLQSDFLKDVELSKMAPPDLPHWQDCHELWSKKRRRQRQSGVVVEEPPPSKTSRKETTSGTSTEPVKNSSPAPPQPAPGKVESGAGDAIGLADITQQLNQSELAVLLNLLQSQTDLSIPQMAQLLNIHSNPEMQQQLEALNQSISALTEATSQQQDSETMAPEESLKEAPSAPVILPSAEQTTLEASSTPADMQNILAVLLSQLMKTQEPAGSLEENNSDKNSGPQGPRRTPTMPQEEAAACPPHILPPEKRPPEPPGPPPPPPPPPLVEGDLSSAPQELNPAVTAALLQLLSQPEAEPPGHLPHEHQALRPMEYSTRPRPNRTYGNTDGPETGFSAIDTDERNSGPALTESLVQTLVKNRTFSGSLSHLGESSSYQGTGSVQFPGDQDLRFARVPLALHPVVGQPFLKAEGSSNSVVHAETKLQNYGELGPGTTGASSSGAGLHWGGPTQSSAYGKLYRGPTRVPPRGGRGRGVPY
T1 sequence (Q16531 whole entry): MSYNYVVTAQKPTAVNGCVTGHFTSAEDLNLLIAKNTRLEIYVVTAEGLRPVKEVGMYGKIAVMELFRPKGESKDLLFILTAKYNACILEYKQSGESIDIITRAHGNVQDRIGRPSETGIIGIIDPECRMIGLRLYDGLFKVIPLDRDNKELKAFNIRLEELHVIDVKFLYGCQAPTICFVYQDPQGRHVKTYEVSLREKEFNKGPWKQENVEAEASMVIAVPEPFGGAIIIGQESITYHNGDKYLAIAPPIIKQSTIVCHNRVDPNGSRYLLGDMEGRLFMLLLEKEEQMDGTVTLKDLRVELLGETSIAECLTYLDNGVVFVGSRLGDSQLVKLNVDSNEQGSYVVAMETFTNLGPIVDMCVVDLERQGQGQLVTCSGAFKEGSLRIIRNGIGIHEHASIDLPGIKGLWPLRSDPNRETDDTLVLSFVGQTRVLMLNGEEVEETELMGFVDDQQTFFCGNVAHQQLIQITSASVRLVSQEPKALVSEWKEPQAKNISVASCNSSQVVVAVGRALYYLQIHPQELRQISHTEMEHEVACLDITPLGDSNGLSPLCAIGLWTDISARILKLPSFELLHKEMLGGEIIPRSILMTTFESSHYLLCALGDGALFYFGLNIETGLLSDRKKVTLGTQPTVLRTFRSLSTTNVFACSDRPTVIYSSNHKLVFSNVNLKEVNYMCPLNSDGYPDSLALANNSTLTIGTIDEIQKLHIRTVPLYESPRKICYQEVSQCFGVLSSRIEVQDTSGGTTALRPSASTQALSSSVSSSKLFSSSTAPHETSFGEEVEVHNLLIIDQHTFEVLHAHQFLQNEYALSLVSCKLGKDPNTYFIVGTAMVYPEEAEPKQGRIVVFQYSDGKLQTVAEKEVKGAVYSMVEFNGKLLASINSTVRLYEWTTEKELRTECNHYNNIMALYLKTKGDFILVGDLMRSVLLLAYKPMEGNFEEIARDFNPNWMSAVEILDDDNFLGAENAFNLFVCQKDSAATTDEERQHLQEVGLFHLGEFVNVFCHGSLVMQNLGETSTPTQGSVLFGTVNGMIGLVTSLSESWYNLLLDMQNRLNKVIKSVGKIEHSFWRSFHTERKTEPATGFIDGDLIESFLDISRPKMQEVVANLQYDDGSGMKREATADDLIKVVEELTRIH
T1 sequence (O75909 whole entry partner): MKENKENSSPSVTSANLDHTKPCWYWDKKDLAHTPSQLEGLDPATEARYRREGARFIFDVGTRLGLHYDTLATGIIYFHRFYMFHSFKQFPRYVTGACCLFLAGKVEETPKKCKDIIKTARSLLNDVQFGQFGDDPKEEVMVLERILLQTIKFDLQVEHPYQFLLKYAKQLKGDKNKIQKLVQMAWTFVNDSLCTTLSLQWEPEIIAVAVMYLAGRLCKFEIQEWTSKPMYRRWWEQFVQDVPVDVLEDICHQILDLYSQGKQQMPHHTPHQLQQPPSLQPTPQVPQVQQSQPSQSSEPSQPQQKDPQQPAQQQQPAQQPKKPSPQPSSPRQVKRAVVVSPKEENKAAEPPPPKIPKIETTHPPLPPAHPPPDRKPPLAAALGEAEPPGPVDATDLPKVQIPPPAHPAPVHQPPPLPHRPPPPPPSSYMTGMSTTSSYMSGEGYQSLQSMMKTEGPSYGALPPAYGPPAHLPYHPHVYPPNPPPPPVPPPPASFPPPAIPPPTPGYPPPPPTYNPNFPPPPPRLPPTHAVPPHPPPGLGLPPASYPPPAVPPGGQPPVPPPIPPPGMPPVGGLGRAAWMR

Compound | EC50 [2] [nM] | DC50 (CCNK) [nM] | NanoBRET fold-change Activity Class [3] | NanoLuc-CCNK degradation DC50 Activity Class (CCNK) | activity in NanoBRET assay (ternary complex formation), in words [2] | NanoBRET EC50 Activity Class [2] | EC50 [1] [nM] | EC50 (KBM7 cells (wild-type)) [nM] | Ratio UBE2M WT to KO (KBM7 cells (wild-type)) | activity in NanoLuc CCNK degradation assay, in words (CCNK) | activity in KBM7 cytotoxicity assay, in words (KBM7 cells (wild-type); KBM7)
Cc1cnc(NC(=O)Cc2coc3c(C)c(C)ccc23)s1 [Example 3-1, 2-(6,7-dimethylbenzofuran-3-yl)-N-(5-methylthiazol-2-yl)acetamide] | ≤ 250 | – | B (3-4 fold increase) | B (0.50 μM≤DC50<0.10 μM) | – | – | 500 to 1000 | ≤ 250 | 25.3 | – | –
O=C(Cc1cn2cc(F)ccc2n1)Nc1ncc(C(F)(F)F)s1 [Example 3-5, 2-(6-fluoroimidazo[1,2-a]pyridin-2-yl)-N-(5-(trifluoromethyl)thiazol-2-yl)acetamide] | – | ≤ 100 | B (3-4 fold increase) | – | particularly exceptional | C (1.0 μM≤EC50<0.50 μM) | 250 to 500 | ≤ 250 | 142 | particularly exceptional | –
O=C(Nc1ncc(C(F)(F)F)s1)C1CC(=O)N(c2cccc(Cl)c2)C1 (stereo not shown) [Example 3-19, 1-(3-chlorophenyl)-5-oxo-N-(5-(trifluoromethyl)thiazol-2-yl)pyrrolidine-3-carboxamide] | – | ≤ 100 | A (greater than 4-fold increase) | – | – | B (0.50 μM≤EC50≤0.25 μM) | ≤ 250 | ≤ 250 | 9.1 | – | –
Cc1ccc2c(CC(=O)Nc3ncc(Cl)s3)coc2c1C [Example 3-3, N-(5-chlorothiazol-2-yl)-2-(6,7-dimethylbenzofuran-3-yl)acetamide] | > 10000 | > 10000 | D (1-2 fold increase) | – | – | – | 1000 to 10000 | ≤ 250 | 23.5 | – | –
O=C(Cc1cn2cc(Cl)cc(Cl)c2n1)Nc1ncc(C(F)(F)F)s1 [Example 3-8, 2-(6,8-dichloroimidazo[1,2-a]pyridin-2-yl)-N-(5-(trifluoromethyl)thiazol-2-yl)acetamide] | – | ≤ 100 | A (greater than 4-fold increase) | – | – | – | ≤ 250 | ≤ 250 | 51.5 | – | –
O=C(Nc1ncc(C(F)(F)F)s1)C1CC(=O)N(c2ccc(Cl)cc2)C1 (stereo not shown) [Example 3-18, 1-(4-chlorophenyl)-5-oxo-N-(5-(trifluoromethyl)thiazol-2-yl)pyrrolidine-3-carboxamide] | – | – | C (2-3 fold increase) | D (10 μM≤DC50<1.0 μM) | – | – | > 10000 | ≤ 250 | >10 | – | –

Now from value to compound, other results behind:

EC50 [2] [nM] | DC50 (CCNK) [nM] | NanoBRET fold-change Activity Class [3] | NanoLuc-CCNK degradation DC50 Activity Class (CCNK) | activity in NanoBRET assay (ternary complex formation), in words [2] | NanoBRET EC50 Activity Class [2] | Compound | EC50 [1] [nM] | EC50 (KBM7 cells (wild-type)) [nM] | Ratio UBE2M WT to KO (KBM7 cells (wild-type)) | activity in NanoLuc CCNK degradation assay, in words (CCNK) | activity in KBM7 cytotoxicity assay, in words (KBM7 cells (wild-type); KBM7)
> 10000 | > 10000 | B (3-4 fold increase) | – | – | – | O=C(Nc1ncc(C(F)(F)F)s1)C1CC(=O)N(c2cc(F)ccc2F)C1 (stereo not shown) [Example 3-22, 1-(2,5-difluorophenyl)-5-oxo-N-(5-(trifluoromethyl)thiazol-2-yl)pyrrolidine-3-carboxamide] | > 10000 | ≤ 250 | >10 | – | –
≤ 250 | ≤ 100 | A (greater than 4-fold increase) | – | exceptional | – | O=C(Cc1cn2cc(F)ccc2n1)Nc1ncc(C2CC2)s1 [Example 3-43, N-(5-cyclopropylthiazol-2-yl)-2-(6-fluoroimidazo[1,2-a]pyridin-2-yl)acetamide] | ≤ 250 | ≤ 250 | – | exceptional | extremely potent activity
≤ 250 | ≤ 100 | A (greater than 4-fold increase) | – | – | – | O=C(Cc1cn2cc(F)ccc2n1)Nc1ccc(C2CC2)cn1 [Example 3-62, N-(5-cyclopropylpyridin-2-yl)-2-(6-fluoroimidazo[1,2-a]pyridin-2-yl)acetamide] | 250 to 500 | ≤ 250 | 50.8 | – | –
≤ 250 | – | A (greater than 4-fold increase) | B (0.50 μM≤DC50<0.10 μM) | – | – | Cc1ccc2c(CC(=O)Nc3ccc(C4CC4)cn3)coc2c1C [Example 3-52, N-(5-cyclopropylpyridin-2-yl)-2-(6,7-dimethylbenzofuran-3-yl)acetamide] | 1000 to 10000 | ≤ 250 | 27.0 | – | –
– | – | – | D (10 μM≤DC50<1.0 μM) | – | B (0.50 μM≤EC50≤0.25 μM) | O=C(Cc1c[nH]c2cccnc12)Nc1ncc(C(F)(F)F)s1 [Example 3-40, 2-(1H-pyrrolo[3,2-b]pyridin-3-yl)-N-(5-(trifluoromethyl)thiazol-2-yl)acetamide] | > 10000 | ≤ 250 | >200 | – | –
– | > 10000 | C (2-3 fold increase) | – | – | – | O=C(Cc1ccc2cnccc2c1)Nc1ncc(C(F)(F)F)s1 [Example 3-31, 2-(isoquinolin-6-yl)-N-(5-(trifluoromethyl)thiazol-2-yl)acetamide] | > 10000 | 1000 to 10000 | >4 | – | –
– | – | B (3-4 fold increase) | B (0.50 μM≤DC50<0.10 μM) | – | – | CC(C)c1cc(NC(=O)Cc2cn3cc(F)ccc3n2)n[nH]1 [Example 3-57, 2-(6-fluoroimidazo[1,2-a]pyridin-2-yl)-N-(5-isopropyl-1H-pyrazol-3-yl)acetamide] | 1000 to 10000 | ≤ 250 | 146.3 | – | –
– | – | B (3-4 fold increase) | D (10 μM≤DC50<1.0 μM) | – | – | Cc1ccc2c(CC(=O)Nc3cc(C4CC4)[nH]n3)coc2c1C [Example 3-46, N-(5-cyclopropyl-1H-pyrazol-3-yl)-2-(6,7-dimethylbenzofuran-3-yl)acetamide] | > 10000 | 500 to 1000 | >10 | – | –
